Data on 24 compounds can be found in patent US11292781B2, “Pyrimidine tricyclic enone derivatives for inhibition of ROR-gamma and other uses” (REATA PHARMACEUTICALS, INC., priority 2016, dated 2022).

Structures are written as SMILES. A value given as a limit tells only on which side of the number the result lay.

For assay [1], the system named is Human RAR-related Orphan Receptor Gamma (RORγ). Briefly: RORγ assay (GAL4-RORγ hybrid luciferase reporter, Indigo Biosciences). Type of assay: cell-based. The note with it: GAL4-RORγ reporter cells, 23 hours. An excerpt: B. RORγ Assay and Cell Viability
The RORγ assay system was purchased from Indigo Biosciences. This nuclear receptor assay utilizes a human cell line that has been engineered to express a hybrid form of the Human RAR-related Orphan Receptor Gamma (RORγ) at high levels. The N-terminal DNA binding domain (DBD) of the native RORγ receptor was substituted with the yeast GAL4-DBD to generate the GAL4-RORγ hybrid nuclear receptor. The reporter cell line is transfected with a plasmid that encodes the beetle luciferase gene under the control of the GAL4 upstream activating sequence (UAS). GAL4 binds to the UAS and increases transcription of downstream target genes. […] To assess the RORγ inverse-agonist activity of the test compounds, reporter cells were plated in white 96-well plates in triplicate and were treated with DMSO (vehicle) or test compound (concentration ranges of 0.4-200 nM or 2-1000 nM) at 37° C. with 5% CO2 in a humidified atmosphere for 23 hours. After this incubation, luciferin was added to the wells and luciferase activity was determined by measuring the luminescence signal using a BMG Pherastar microplate reader. Viability was determined using the Live Cell Multiplex Assay (Indigo Biosciences). Values from test compound samples were normalized to those from DMSO-treated samples. Data were analyzed using GraphPad Prism version 6.00 for Windows (GraphPad Software, La Jolla Calif. USA). A non-linear regression analysis with log (inhibitor) vs. normalized response using a variable slope was applied to fit the data and determine the IC50 values for inhibition of RORγ and cell viability.

Assay [2] concerns Nrf2 transcription factor (GST ARE luciferase reporter in AREc32 cells). Briefly: AREc32 luciferase reporter assay. Type of assay: cell-based, human. The note with it: EC2×: concentration required to increase GST ARE luciferase reporter activity by 2-fold, 19 hours. The essentials: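 AREc32 cells (MCF-7 carrying luciferase under eight rat GSTA2 ARE copies) treated with compound; luciferase measured by ONE-Glo luminescence. Signal normalised to DMSO wells as fold-induction, fitted by variable-slope log(agonist)-response regression, with EC2× interpolated from the curve.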
In general terms: Reporter assays use an easily measured gene product as a stand-in for the process of interest.

Assay [3] concerns IL-17A levels in primary human CD4+ T cells differentiated into Th17 cells. As to the kind of experiment: IL-17 release from differentiated primary human T-cells (IL-17A HTRF). The class given is cell-based. The note with it: primary human CD4+ T cells, Th17 differentiation, 46-hour incubation; read-out: hIL17 IC50. The essentials:
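Cryopreserved primary human CD4+ T cells were activated with CD3/CD28 beads (1:2.5) and driven to Th17 with TGF-β 5, IL-6 20, IL-23 20, IL-10 10 ng/mL in ≤0.1% DMSO for 46 h at 37° C, in triplicate. Supernatant IL-17A was measured by HTRF and viability by CyQuant normalized to DMSO. IC50s came from variable-slope nonlinear regression.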
(In TR-FRET formats the signal depends on donor and acceptor labels being close together.)

Regarding `COc1nc(CCNC=O)nc2c1CC[C@@H]1[C@@H](C)C(=O)C(C#N)=C[C@@]21C` [T11], in assay [1], the IC50 was above 2000 nM. In addition, the “HRF2 ARE 2×” value in assay [2] is 2438 nM.

Take `C[C@H]1C(=O)C(C#N)=C[C@@]2(C)c3nc(-c4ccncc4)nc(O)c3CC[C@H]12` [T17]: the IC50 in assay [1] was above 2000 nM. For the same compound, in assay [2], the “HRF2 ARE 2×” value stood at 839 nM.

For `C[C@H]1C(=O)C(C#N)=C[C@@]2(C)c3nc(-c4ccnc5ccccc45)nc(NS(C)(=O)=O)c3CC[C@H]12` [T98], the IC50 was above 2000 nM in assay [1] and above 1000 nM in assay [3]. Besides, the “HRF2 ARE 2×” value in assay [2] was above 2000 nM.

Turning to `C[C@H]1C(=O)C(C#N)=C[C@@]2(C)c3nc(-c4ccnc(CCC(=O)O)c4)nc(-c4ccccc4F)c3CC[C@H]12` [T150], the IC50 in assay [1] was above 2000 nM. The “HRF2 ARE 2×” value in assay [2] is listed as above 2000 nM.

With `CCS(=O)(=O)Cc1cc(-c2nc(-c3ccccc3F)c3c(n2)[C@]2(C)C=C(C#N)C(=O)[C@H](C)[C@H]2CC3)ccn1` [T154], the IC50 in assay [3] was determined as 65 nM. Further, the “HRF2 ARE 2×” value in assay [2] came out at 469 nM.

As to `CCC[C@@]12C=C(C#N)C(=O)C[C@H]1CCc1c(-c3ccccc3F)nc(-c3ccnc(CF)c3)nc12` [T155], the IC50 in assay [3] was 71 nM. In addition, in assay [2], the “HRF2 ARE 2×” value is listed as 267 nM.

For `CCC[C@@]12C=C(C#N)C(=O)C[C@H]1CCc1c(-c3ccccc3F)nc(-c3ccnc4ccccc34)nc12` [T156], in assay [3], the IC50 is 54 nM. Moreover, the “HRF2 ARE 2×” value in assay [2] worked out at 333 nM.

Consider `C[C@]1(CC2CC2)C(=O)C(C#N)=C[C@@]2(C)c3nc(-c4ccnc5ccccc45)nc(-c4ccccc4F)c3CC[C@H]12` [T157], for which, in assay [3], the IC50 came out at 23 nM. The “HRF2 ARE 2×” value in assay [2] is reported as 304 nM.

As to `CCC[C@H]1C(=O)C(C#N)=C[C@@]2(C)c3nc(-c4cccc5ncccc45)nc(-c4ccccc4F)c3CC[C@H]12` [T159], in assay [3], the IC50 turned out to be 22 nM. Further, the “HRF2 ARE 2×” value in assay [2] is 337 nM.

As for `CC(C)c1cccc(-c2nc(-c3ccnc4ccccc34)nc3c2CC[C@@H]2[C@@H](C)C(=O)C(C#N)=C[C@@]32C)c1` [T160], the IC50 in assay [3] is 22 nM. Besides, in assay [2], the “HRF2 ARE 2×” value came out at 418 nM.

As to `C[C@H]1C(=O)C(C#N)=C[C@@]2(C)c3nc(-c4ccnc5ccccc45)nc(-c4cccc(-c5ccccc5)c4)c3CC[C@H]12` [T162], the IC50 in assay [3] was determined as 50 nM. In addition, the “HRF2 ARE 2×” value in assay [2] is on record as 601 nM.

For the compound `CC(C)CC[C@@]12C=C(C#N)C(=O)C[C@H]1CCc1c(-c3ccccc3F)nc(-c3ccnc4ccccc34)nc12` [T164], in assay [3], the IC50 was 352 nM. Besides, the “HRF2 ARE 2×” value in assay [2] was 1059 nM.

In the case of `CC(C)CC[C@@]12C=C(C#N)C(=O)C[C@H]1CCc1c(-c3ccccc3F)nc(-c3ccnc(CF)c3)nc12` [T165], in assay [3], the IC50 amounted to 65 nM. The “HRF2 ARE 2×” value in assay [2] stood at 863 nM.

Take `C=C(C)C[C@@]1(C)C(=O)C(C#N)=C[C@@]2(C)c3nc(-c4ccnc5ccccc45)nc(-c4ccccc4F)c3CC[C@H]12` [T166]: the half-inhibitory concentration (IC50) in assay [3] was 31 nM. Moreover, in assay [2], the “HRF2 ARE 2×” value is recorded as 878 nM.

As to `CCC[C@@]12C=C(C#N)C(=O)C[C@H]1CCc1c(-c3ccccc3F)nc(-c3ccnc(C4CC4)c3)nc12` [T167], the IC50 in assay [3] was 106 nM. In addition, in assay [2], the “HRF2 ARE 2×” value turned out to be 493 nM.

On to `CCC[C@H]1C(=O)C(C#N)=C[C@@]2(CCC)c3nc(-c4ccnc(C5CC5)c4)nc(-c4ccccc4F)c3CC[C@H]12` [T168], for which the IC50 in assay [3] was 32 nM. In assay [2], the “HRF2 ARE 2×” value is listed as 1239 nM.

Regarding `C[C@@H]1C(=O)C(C#N)=C[C@@]2(C)c3nc(-c4ccnc5ccccc45)nc(-c4ccccc4F)c3CC[C@@H]12` [T175], the IC50 in assay [3] stood at 329 nM. The “HRF2 ARE 2×” value in assay [2] is above 2000 nM.

For `C[C@H]1C(=O)C(C#N)=C[C@@]2(C)c3nc(-c4ccnc5ccccc45)nc(-c4ccccc4F)c3CC[C@@H]12` [T176], in assay [3], the IC50 stood at 455 nM. The “HRF2 ARE 2×” value in assay [2] was above 2000 nM.

As for `CC(=O)NCCc1cc(-c2nc(-c3ccccc3F)c3c(n2)[C@]2(C)C=C(C#N)C(=O)[C@H](C)[C@H]2CC3)ccn1` [T178], the IC50 in assay [3] was found to be 130 nM. The “HRF2 ARE 2×” value in assay [2] is 444 nM.

With `C[C@H]1C(=O)C(C#N)=C[C@@]2(C)c3nc(-c4ccncc4-c4ccccc4)nc(-c4ccccc4F)c3CC[C@H]12` [T179], the IC50 in assay [3] was 27 nM. The “HRF2 ARE 2×” value in assay [2] was 649 nM.

With `C[C@H]1C(=O)C(C#N)=C[C@@]2(C)c3nc(-c4ccncc4C4CC4)nc(-c4ccccc4F)c3CC[C@H]12` [T180], the IC50 in assay [3] stood at 21 nM. Further, the “HRF2 ARE 2×” value in assay [2] came out at 494 nM.

For `C[C@H]1C(=O)C(C#N)=C[C@@]2(C)c3nc(-c4cccc5ncccc45)nc(-c4ccccc4)c3CCC[C@H]12` [T183], in assay [3], the IC50 is 70 nM. In addition, the “HRF2 ARE 2×” value in assay [2] is given as 1868 nM.

`Cc1cc(-c2nc(-c3ccc(F)cc3)c3c(n2)[C@]2(C)CC(C(N)=O)C(=O)[C@H](C)[C@H]2CC3)ccn1` (stereo partly shown) [T185] gave an IC50 in assay [1] above 2000 nM. For the same compound, in assay [2], the “HRF2 ARE 2×” value is given as above 2000 nM.

Consider `C[C@H]1C(=O)C(C#N)C[C@@]2(C)c3nc(-c4ccnc5ccccc45)nc(-c4ccccc4F)c3CC[C@H]12` (stereo partly shown) [T186], for which the IC50 in assay [3] was found to be 195 nM. The “HRF2 ARE 2×” value in assay [2] is given as above 2000 nM.

As usually defined, the IC50 is the concentration needed to halve the response being measured.
